# Experimental data as given in patent publication US20240150290A1, “HETEROCYCLIC P2Y14 RECEPTOR ANTAGONISTS” (priority 2021, published 2024).
# Like-named read-outs stand apart in the source and are kept apart here.
# Columns and labels:
# mP2Y14R = molecular target: T1, mP2Y14R (Mus musculus, UniProt Q9ESG6); test: cell-based; conditions: for affinity at the mP2Y14R vs the human homologue: comparison of species, in words
# T1 sequence (Q9ESG6 1-338): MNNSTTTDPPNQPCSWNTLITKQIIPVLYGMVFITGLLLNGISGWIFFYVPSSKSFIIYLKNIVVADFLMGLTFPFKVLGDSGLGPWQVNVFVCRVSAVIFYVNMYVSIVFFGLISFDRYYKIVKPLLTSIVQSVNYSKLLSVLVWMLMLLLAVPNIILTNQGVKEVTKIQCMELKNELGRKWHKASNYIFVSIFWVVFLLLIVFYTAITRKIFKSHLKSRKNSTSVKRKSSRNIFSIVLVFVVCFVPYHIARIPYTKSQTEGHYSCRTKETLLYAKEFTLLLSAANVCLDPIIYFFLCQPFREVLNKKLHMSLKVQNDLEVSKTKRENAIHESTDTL
# Excerpt: Desirably, receptor affinity is maintained across species, facilitating performance in in vivo preclinical testing in small animals, with the mouse being the most commonly used species in initial evaluation.
# hP2Y14R = molecular target: T2, hP2Y14R (Homo sapiens, UniProt Q15391); test: Inhibition of fluorescent antagonist binding in whole hP2Y14R-expressing CHO cells (flow cytometry)
# T2 construct: expressed in transfected cells; host or cells: CHO cells
# T2 sequence (Q15391 1-338): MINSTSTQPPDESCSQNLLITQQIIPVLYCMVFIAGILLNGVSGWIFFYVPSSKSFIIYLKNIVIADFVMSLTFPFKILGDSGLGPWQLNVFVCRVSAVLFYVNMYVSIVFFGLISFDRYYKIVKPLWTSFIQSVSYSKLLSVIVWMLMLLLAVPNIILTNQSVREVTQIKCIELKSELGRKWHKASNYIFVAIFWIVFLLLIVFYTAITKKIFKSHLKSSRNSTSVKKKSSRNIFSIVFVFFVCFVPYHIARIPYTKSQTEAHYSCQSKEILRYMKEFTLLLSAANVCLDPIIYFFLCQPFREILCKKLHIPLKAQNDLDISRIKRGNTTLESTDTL
# [1] = HPLC-based lipophilicity (Log D7.4); conditions: pH 7.4
# [2] = Aqueous solubility, pION method
# hERG ion channel = hERG ion channel (Homo sapiens, UniProt Q12809); test: hERG ion channel block, patch clamp assay
# Sequence of hERG ion channel (Q12809 whole entry): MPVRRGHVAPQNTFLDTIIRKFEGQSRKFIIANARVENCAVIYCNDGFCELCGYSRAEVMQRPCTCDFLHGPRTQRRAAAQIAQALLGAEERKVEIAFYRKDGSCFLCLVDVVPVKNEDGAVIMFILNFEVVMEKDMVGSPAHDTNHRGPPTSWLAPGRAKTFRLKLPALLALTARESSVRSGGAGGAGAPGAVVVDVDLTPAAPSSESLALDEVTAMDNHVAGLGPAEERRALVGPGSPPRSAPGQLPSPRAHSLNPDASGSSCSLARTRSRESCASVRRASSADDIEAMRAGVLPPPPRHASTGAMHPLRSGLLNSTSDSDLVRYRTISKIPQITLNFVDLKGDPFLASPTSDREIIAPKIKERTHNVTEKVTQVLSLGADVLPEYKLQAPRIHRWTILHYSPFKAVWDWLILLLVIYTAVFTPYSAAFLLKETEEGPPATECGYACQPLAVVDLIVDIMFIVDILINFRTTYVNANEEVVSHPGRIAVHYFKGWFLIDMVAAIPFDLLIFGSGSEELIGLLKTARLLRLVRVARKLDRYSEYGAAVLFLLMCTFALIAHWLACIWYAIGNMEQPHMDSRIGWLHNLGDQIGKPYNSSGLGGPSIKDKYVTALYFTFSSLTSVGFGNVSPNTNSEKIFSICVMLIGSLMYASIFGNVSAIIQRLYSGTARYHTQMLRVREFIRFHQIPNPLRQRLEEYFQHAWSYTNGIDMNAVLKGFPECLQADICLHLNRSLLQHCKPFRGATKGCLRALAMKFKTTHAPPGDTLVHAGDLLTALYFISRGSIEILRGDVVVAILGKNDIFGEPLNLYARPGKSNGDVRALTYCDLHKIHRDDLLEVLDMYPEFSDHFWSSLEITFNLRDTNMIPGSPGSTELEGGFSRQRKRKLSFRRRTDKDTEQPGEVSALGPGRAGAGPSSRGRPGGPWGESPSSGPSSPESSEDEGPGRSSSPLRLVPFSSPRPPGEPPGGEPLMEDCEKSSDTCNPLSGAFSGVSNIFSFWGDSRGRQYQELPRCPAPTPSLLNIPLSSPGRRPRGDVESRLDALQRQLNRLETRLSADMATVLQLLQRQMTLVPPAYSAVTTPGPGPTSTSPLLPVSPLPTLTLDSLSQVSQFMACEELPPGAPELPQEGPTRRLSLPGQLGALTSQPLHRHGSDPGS
# [3] = test system: allergen-induced airway inflammation; test: Ovalbumin/Aspergillus mouse asthma model (BALF leukocytes); conditions: 20 μmol/kg; for eosinophil counts in the BALF: i.p. prior to allergen challenge, two days post-challenge
# PLE = test: Esterase cleavage of prodrugs in the presence of PLE; format: in vitro ADME; conditions: 37° C.; for Percent cleavage at 72 h: pH 7.3, PLE
# [4] = test system: CCI-induced mechano-allodynia; test: Chronic constriction injury (CCI) mouse model of neuropathic pain; conditions: 10 μmol/kg, i.p., day 7 post-injury
# [5] = read-out: mP2Y14R, IC50, Table 2, tracer 2 (20 nM, 45 min), HEK293 cells
# [6] = read-out: mP2Y14R, IC50, Table 6, whole mP2Y14R-HEK cells, 200 nM of 3, mean ± SEM, n = 3-6
# [7] = Table 6, fluorescent hP2Y14R antagonist (3), read-out: hP2Y14R, IC50
# [8] = Table 2, whole hP2Y14R-CHO cells, 20 nM fluorescent antagonist 3, mean+SEM, n = 3-6, read-out: IC50
# [9] = Table 1, fluorescent antagonist 2, hP2Y14R-CHO cells, 3-4 determinations, read-out: IC50, hP2Y14R (μM, mean ± SEM)
smiles,measurement,setting,value
"O=C(O)c1cc(-c2ccc(-c3cc(CO)on3)cc2)cc(-n2cc(-c3ccc(C(F)(F)F)cc3)nn2)c1 [Compound 29, 4′-(5-(Hydroxymethyl)isoxazol-3-yl)-5-(4-(4-(trifluoromethyl)phenyl)-1H-1,2,3-triazol-1-yl)-[1,1′-biphenyl]-3-carboxylic acid]",affinity at the mP2Y14R vs the human homologue,mP2Y14R,slightly enhanced affinity
same,IC50,mP2Y14R; [5],184 ± 24 nM
same,IC50,"hP2Y14R; Table 2, tracer 2 (20 nM, 45 min), CHO cells, read-out: hP2Y14R, IC50",0.296 ± 0.013 µM
"CC(=O)N1C[C@H]2C[C@@H]1C[C@@H]2c1ccc(-c2cc(C(=O)O)cc3cc(-c4ccc(C(F)(F)F)cc4)ccc23)cc1 [Compound 118, 4-(4-((1S,4S,5S)-2-Acetyl-2-azabicyclo[2.2.1]heptan-5-yl)phenyl)-7-(4-(trifluoromethyl)phenyl)-2-naphthoic acid]",chromatographic logD,[1],0.921 ± 0.034
same,Solubility (ug/mL) pH 7.4,[2],1.86 ± 0.05 ug/mL
same,IC50,mP2Y14R; [6],102 ± 39 nM
same,IC50,hP2Y14R; [7],0.107 ± 0.013 µM
"O=C(O)c1cc(-c2ccc([C@]3(O)[C@@H]4CC[C@H]3CNC4)cc2)c2ccc(-c3ccc(C(F)(F)F)cc3)cc2c1 [Compound 131, 4-(4-((1R,5S,8r)-8-Hydroxy-3-azabicyclo[3.2.1]octan-8-yl)phenyl)-7-(4-(trifluoromethyl)phenyl)-2-naphthoic acid]",IC50,hERG ion channel,> 30000 nM
same,chromatographic logD,[1],1.2 ± 0.01
same,solubility,"[2]; pH 4, aqueous buffer",2.32 ± 0.25 µg/mL
same,solubility,"[2]; pH 7.4, aqueous buffer",0.54 ± 0.09 µg/mL
same,IC50,mP2Y14R,15.5 ± 3.3 nM
same,IC50,hP2Y14R,0.0213 ± 0.0011 µM
"O=C(O)c1cc(-c2ccc([C@@H]3C[C@H]4CN[C@@H]3C4)cc2)c2ccc(-c3ccc(C(F)(F)F)cc3)cc2c1 [Compound 116, 4-(4-((1R,4R,6S)-2-Azabicyclo[2.2.1]heptan-6-yl)phenyl)-7-(4-(trifluoromethyl)phenyl)-2-naphthoic acid]",IC50,hERG ion channel,> 30000 nM
same,chromatographic logD,[1],2.11 ± 0.06
same,Solubility (ug/mL) pH 4,[2],1.45 ± 0.05 ug/mL
same,Solubility (ug/mL) pH 7.4,[2],0.40 ± 0.13 ug/mL
same,IC50,hP2Y14R; [8],0.0098 ± 0.0003 µM
"CN(C)C(=O)COC(=O)c1cc(-c2ccc(-c3cc(CO)on3)cc2)c2ccc(-c3ccc(C(F)(F)F)cc3)cc2c1 [Compound 37b, 2-(Dimethylamino)-2-oxoethyl 4-(4-(5-(hydroxymethyl)isoxazol-3-yl)phenyl)-7-(4-(trifluoromethyl)phenyl)-2-naphthoate]",eosinophil counts in the BALF,[3],significantly reduced eosinophils to a greater extent than the parent antagonists
same,Percent cleavage at 72 h,PLE,32.6 ± 0.9%
"N[C@H]1C[C@@H](CO)[C@H](c2ccc(-c3cc(C(=O)O)cc4cc(-c5ccc(C(F)(F)F)cc5)ccc34)cc2)C1 [Compound 135, 4-(4-((1R,2R,4R)-4-Amino-2-(hydroxymethyl)cyclopentyl)phenyl)-7-(4-(trifluoromethyl)phenyl)-2-naphthoic acid]",IC50,hERG ion channel,> 30000 nM
same,chromatographic logD,[1],0.957 ± 0.046
same,Solubility (ug/mL) pH 4,[2],4.97 ± 0.11 ug/mL
same,Solubility (ug/mL) pH 7.4,[2],0.66 ± 0.02 ug/mL
same,IC50,hP2Y14R; [8],0.0126 ± 0.0019 µM
"NCC#Cc1ccc(-c2cc(C(=O)O)cc(-n3cc(-c4ccc(C(F)(F)F)cc4)nn3)c2)cc1 [Compound 19, 4′-(3-Aminoprop-1-yn-1-yl)-5-(4-(4-(trifluoromethyl)phenyl)-1H-1,2,3-triazol-1-yl)-[1,1′-biphenyl]-3-carboxylic acid]",affinity at the mP2Y14R vs the human homologue,mP2Y14R,nearly the same affinity in the two species
same,IC50,mP2Y14R; [5],375 ± 175 nM
same,IC50,hP2Y14R; [9],0.308 ± 0.063 µM
"O=C(O)c1cc(-c2ccc([C@@H]3C[C@@H]4C[C@H]3CN4)cc2)c2ccc(-c3ccc(C(F)(F)F)cc3)cc2c1 [Compound 115, 4-(4-((1R,4R,5R)-2-Azabicyclo[2.2.1]heptan-5-yl)phenyl)-7-(4-(trifluoromethyl)phenyl)-2-naphthoic acid]",IC50,hERG ion channel,> 30000 nM
same,IC50,hP2Y14R; [8],0.00862 ± 0.00211 µM
"CC(=O)N1CCC(c2ccc(-c3cc(C(=O)OCC(=O)N(C)C)cc4cc(-c5ccc(C(F)(F)F)cc5)ccc34)cc2)CC1 [Compound 37c, 2-(Dimethylamino)-2-oxoethyl 4-(4-(1-acetylpiperidin-4-yl)phenyl)-7-(4-(trifluoromethyl)phenyl)-2-naphthoate]",eosinophil counts in the BALF,[3],significantly reduced eosinophils to a greater extent than the parent antagonists
same,Percent cleavage at 72 h,PLE,27.2 ± 0.3%
"N[C@@H]1C[C@H](CO)[C@@H](c2ccc(-c3cc(C(=O)O)cc4cc(-c5ccc(C(F)(F)F)cc5)ccc34)cc2)C1 [Compound 134, 4-(4-((1S,2S,4S)-4-Amino-2-(hydroxymethyl)cyclopentyl)phenyl)-7-(4-(trifluoromethyl)phenyl)-2-naphthoic acid]",IC50,hERG ion channel,> 30000 nM
same,IC50,mP2Y14R; [6],17.9 ± 2.6 nM
same,IC50,hP2Y14R; [7],0.0108 ± 0.0021 µM
"O=C(O)c1cc(-c2ccc([C@@H]3C[C@@H]4C[C@H]3C(=O)N4)cc2)c2ccc(-c3ccc(C(F)(F)F)cc3)cc2c1 [Compound 120, 4-(4-((1R,4R,5R)-3-Oxo-2-azabicyclo[2.2.1]heptan-5-yl)phenyl)-7-(4-(trifluoromethyl)phenyl)-2-naphthoic acid]",EC50,"hERG ion channel; read-out: (EC50), μM for stimulation of hERG channel activity, patch clamp, Table 8",18.1 µM
same,Solubility (ug/mL) pH 4,[2],0.31 ± 0.14 ug/mL
same,Solubility (ug/mL) pH 7.4,[2],3.42 ± 0.46 ug/mL
same,IC50,mP2Y14R; [6],26.2 ± 10.7 nM
same,IC50,hP2Y14R; [7],0.0395 ± 0.0098 µM
"CC(C)(C)OC(=O)NCCCc1ccc(-c2cc(C(=O)O)cc(-n3cc(-c4ccc(C(F)(F)F)cc4)nn3)c2)cc1 [Compound 20, 4′-(3-((tert-Butoxycarbonyl)amino)propyl)-5-(4-(4-(trifluoromethyl)phenyl)-1H-1,2,3-triazol-1-yl)-[1,1′-biphenyl]-3-carboxylic acid]",EC50,hERG ion channel,18 µM
"CN(C)C(=O)COC(=O)c1cc(-c2ccc(C3CCNCC3)cc2)cc(-n2cc(-c3ccc(C(F)(F)F)cc3)nn2)c1 [Compound 37a, 2-(Dimethylamino)-2-oxoethyl 4′-(piperidin-4-yl)-5-(4-(4-(trifluoromethyl)phenyl)-1H-1,2,3-triazol-1-yl)-[1,1′-biphenyl]-3-carboxylate]",lymphocyte count in the BALF,[3]; i.p.,trended higher than in vehicle control
same,"t1/2 (min, mean ± SEM) for esterase cleavage","PLE; pH 7.3, aqueous medium, PLE",most rapidly cleaved
"NCCCNC(=O)c1ccc(-c2cc(C(=O)O)cc(-n3cc(-c4ccc(C(F)(F)F)cc4)nn3)c2)cc1 [Compound 14, 4′-((3-Aminopropyl)carbamoyl)-5-(4-(4-(trifluoromethyl)phenyl)-1H-1,2,3-triazol-1-yl)-[1,1′-biphenyl]-3-carboxylic acid]",reversal of mechano-allodynia (figure legend),[4],reversal of established mechano-allodynia
same,IC50,hP2Y14R; [9],0.588 ± 0.043 µM
"N[C@@H]1C[C@H](C(=O)O)[C@@H](c2ccc(-c3cc(C(=O)O)cc4cc(-c5ccc(C(F)(F)F)cc5)ccc34)cc2)C1 [Compound 138, 4-(4-((1S,2S,4S)-4-Amino-2-carboxycyclopentyl)phenyl)-7-(4-(trifluoromethyl)phenyl)-2-naphthoic acid]",IC50,mP2Y14R; [6],40.9 ± 6.3 nM
same,IC50,hP2Y14R; [7],0.0496 ± 0.0135 µM
